Reference: patent US20240101546A1, “HETEROARYL-ACETYLENES, PHARMACEUTICAL COMPOSITIONS THEREOF, AND THEIR THERAPEUTIC APPLICATIONS” (Eubulus Biotherapeutics Inc., priority 2020, published 2024)

Test system: lung cancer cell line NCI-H82
Assay: Cell proliferation assay, NCI-H82 (CELL-TITER GLO)
Format: cell-based
Settings: Homo sapiens, NCI-H82, 72 h, NCI-H82 cells, 72 h incubation, cell viability by CELL-TITER GLO, top concentration 1 μM; read-out: EC50, Inhibition of NCl-H82 Cell Proliferation
Method in brief: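 NCI-H82 cells, 1,000 per well in RPMI1640, were treated after overnight plating with a 3-fold dilution series from 1 μM. Viability read by CellTiter-Glo luminescence after 72 h. EC50 derived from the curves.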

- EC50: ≤ 200 nM
Structure (SMILES): C#Cc1nc(NC(=O)N2CCN(c3ncc(-c4cccc5ncsc45)cc3C#N)C[C@@H]2CO)cs1 [Compound B59, (R)-4-(5-(Benzo[d]thiazol-7-yl)-3-cyanopyridin-2-yl)-N-(2-ethynylthiazol-4-yl)-2-(hydroxymethyl)piperazine-1-carboxamide]
